Results published in patent US10435333B2, “High temperature amine-stabilized DCD and/or alkyl thiophosphoric triamide solvent systems and use in agricultural applications” (RHODIA OPERATIONS, priority 2015, dated 2019).

Key:
[1] = degradation of NBPT at high temperature (colour change, sludge/precipitate); type: physicochemical
Method: Another problem is that certain nitrification inhibitors and/or urease inhibitors degrade at high temperatures. […] Often times temperatures in agricultural fields (e.g., corn fields, wheat fields, etc.) reach in excess of 35° C. and sometimes can reach up to 45° C. or higher. For example, at 45° C. […] Thus, it is also desirable to have solvent systems containing nitrification inhibitors and/or urease inhibitors that are stabilized at high temperatures, such as those unitized in hot climates or weather. This invention addresses the addition of stabilizers to prolong the chemical and physical stability of formulated liquid agricultural compositions containing (i) one or more nitrification inhibitors, (ii) one or more urease inhibitors or (iii) a combination of both (i) and (ii). In one embodiment, the urease inhibitor is NBPT.

[2] = cited from earlier work
[3] = visual physical stability of NBPT/DMSO formulation with 2 wt % amine stabilizer at high temperature (FIG. 1); type: physicochemical; settings: 2 wt % amine stabilizer in NBPT/DMSO formulation, greater than 45° C.
Method: FIG. 1 is a photograph of Several amines or amides were tested to check if they can stabilize NBPT degradation at high temperatures (at greater than 45° C.) in NBPT/DMSO formulation. Each sample was prepared with 2% of amine stabilizer added.
Referring to FIG. 1, Several amines or amides were tested to check if they can stabilize NBPT degradation at high temperatures (at greater than 45° C.) in NBPT/DMSO formulation. Each sample was prepared with 2 wt % of amine stabilizer added.

**Q.** Which results are given for `CCCCNP(N)(N)=S` [NBPT, N-(n-butyl)-thiophosphoric triamide]?
**A.** appearance after exposure to high heat ([1]; 45° C., NBPT formulated in different solvents, days to weeks): changes color in days from colorless to a darker green/brown, followed by sludge/precipitate formation after weeks; degradation at higher temperature ([1]; typically above 45° C.): degrades rapidly

**Q.** For `N#CNC(=N)N` [Dicyandiamide, 2-cyanoguanidine], which solubility in water [2] is on record?
**A.** The solubility in water was “about 41 g/l”.

**Q.** Which “physical stability by visual observation (appearance)” value [3] does the source give for `NCCO` [monoethanolamine] here?
**A.** The value was “better physical stability (less dark appearance)”.
